Tests used:
[1] = molecular target: T1, cloned human α2B receptors (Homo sapiens, UniProt P18089); assay: In vitro binding affinity for α2B receptors (3H-rauwolscine competition binding); settings: at a test concentration of 10^-8 M or less; CHO cell expressing cloned human α2B receptors
T1 construct: expressed in transfected cells; host or cells: CHO cells
T1 sequence (P18089 1-450): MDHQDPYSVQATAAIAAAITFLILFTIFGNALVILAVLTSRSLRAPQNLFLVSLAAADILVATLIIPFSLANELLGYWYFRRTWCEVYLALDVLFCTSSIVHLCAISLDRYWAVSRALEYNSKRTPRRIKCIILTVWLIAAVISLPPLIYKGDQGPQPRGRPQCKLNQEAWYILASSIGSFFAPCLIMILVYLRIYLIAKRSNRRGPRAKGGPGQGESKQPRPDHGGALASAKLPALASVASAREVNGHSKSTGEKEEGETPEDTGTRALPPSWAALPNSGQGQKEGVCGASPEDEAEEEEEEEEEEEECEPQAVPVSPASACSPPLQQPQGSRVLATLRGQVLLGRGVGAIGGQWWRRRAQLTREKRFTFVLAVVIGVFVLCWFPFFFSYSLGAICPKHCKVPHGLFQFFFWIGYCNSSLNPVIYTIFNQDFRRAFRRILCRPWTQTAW
Procedure: (§1) The interaction of the compounds of formula (I) with α2 receptors was assessed in in vitro radioligand binding experiments.
(§2) In general, a low concentration of a radioligand with a high binding affinity for a particular receptor is incubated with a sample of a tissue preparation enriched in a particular receptor or with a preparation of cells expressing cloned human receptors in a buffered medium. During the incubation, the radioligand binds to the receptor. When equilibrium of binding is reached, the receptor bound radioactivity is separated from the non-bound radioactivity, and the receptor bound activity is counted. The interaction of the test compounds with the receptor is assessed in competition binding experiments. Various concentrations of the test compound are added to the incubation mixture containing the receptor preparation and the radioligand. Binding of the radioligand will be inhibited by the test compound in proportion to its binding affinity and its concentration.
The radioligand used for α2B receptor binding is ^3 H-rauwolscine and the receptor preparation used is the CHO cell expressing cloned human α2B receptors.

[2] = molecular target: T2, cloned human α2A receptors (Homo sapiens, UniProt P08913); assay: In vitro binding affinity for α2A receptors (3H-rauwolscine competition binding); settings: at a test concentration of 10^-8 M or less; CHO cell expressing cloned human α2A receptors
T2 sequence (P08913 1-465): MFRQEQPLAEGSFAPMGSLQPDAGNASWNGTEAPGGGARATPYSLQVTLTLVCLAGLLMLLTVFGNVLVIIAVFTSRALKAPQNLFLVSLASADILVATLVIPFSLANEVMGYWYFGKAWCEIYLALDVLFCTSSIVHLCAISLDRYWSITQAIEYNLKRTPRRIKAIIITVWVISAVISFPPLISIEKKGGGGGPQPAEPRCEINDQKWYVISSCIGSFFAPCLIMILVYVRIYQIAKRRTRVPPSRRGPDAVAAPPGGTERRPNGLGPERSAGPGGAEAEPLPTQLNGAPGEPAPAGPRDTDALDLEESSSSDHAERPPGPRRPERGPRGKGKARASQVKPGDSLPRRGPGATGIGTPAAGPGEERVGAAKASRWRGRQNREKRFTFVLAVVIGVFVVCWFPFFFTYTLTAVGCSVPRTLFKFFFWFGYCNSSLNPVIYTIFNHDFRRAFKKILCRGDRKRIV
Procedure: as §1, §2
The radioligand used for α2A receptor binding is ^3 H-rauwolscine and the receptor preparation used is the Chinese Hamster Ovary (CHO) cell expressing cloned human α2A receptors.

[3] = molecular target: T3, cloned human α2C receptors (Homo sapiens, UniProt P18825); assay: In vitro binding affinity for α2C receptors (3H-rauwolscine competition binding); settings: at a test concentration of 10^-8 M or less; CHO cell expressing cloned human α2C receptors
T3 construct: expressed in transfected cells; host or cells: CHO cells
T3 sequence (P18825 1-462): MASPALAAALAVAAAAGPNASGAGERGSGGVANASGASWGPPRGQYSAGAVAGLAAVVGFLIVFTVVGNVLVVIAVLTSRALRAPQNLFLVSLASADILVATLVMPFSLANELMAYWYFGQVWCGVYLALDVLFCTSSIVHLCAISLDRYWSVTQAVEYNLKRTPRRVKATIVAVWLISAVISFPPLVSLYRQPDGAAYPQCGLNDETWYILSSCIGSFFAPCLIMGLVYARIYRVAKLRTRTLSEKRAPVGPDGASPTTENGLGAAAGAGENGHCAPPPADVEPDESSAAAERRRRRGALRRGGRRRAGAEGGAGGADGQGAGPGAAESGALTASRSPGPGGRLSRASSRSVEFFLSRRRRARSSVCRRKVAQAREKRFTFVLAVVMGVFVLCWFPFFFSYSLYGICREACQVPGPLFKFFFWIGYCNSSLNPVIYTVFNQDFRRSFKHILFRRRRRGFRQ

α2 -adrenoceptor = assay: Xylazine-induced loss of righting reflex in rats; type: in vivo; settings: one hour before xylazine 15 mg/kg i.v., male rats, lowest tested dose at which at least 66% of animals showed no loss of righting reflex
Procedure: This test is based upon the fact that centrally acting α2 -adrenoceptor antagonists reverse the loss of righting reflex induced by an intravenous injection of the α2 agonist xylazine. One hour before injection of xylazine (15 mg/kg, i.v.), male rats (200-250 g) were pretreated with a test compound (er os (p.o.) or subcutaneously (s.c.)) or solvent.

| Compound | inhibition at up to 0.01 µM [1] [%] | inhibition [2] [%] | inhibition at up to 0.01 µM [3] [%] | LAD in mg/kg (lowest active dose for xylazine antagonism) (α2 -adrenoceptor; s.c.) [mg/kg] | LAD in mg/kg (lowest active dose for xylazine antagonism) (α2 -adrenoceptor; p.o.) [mg/kg] |
| --- | --- | --- | --- | --- | --- |
| Cc1nc2c(C)cccn2c(=O)c1CCN1CCc2oc3ccccc3c2C1 [Compound 33] | > 50 | > 50 | > 50 | 10.00 | – |
| Cc1nc2ccc(Br)cn2c(=O)c1CCN1CCc2oc3ccccc3c2C1 [Compound 31] | > 50 | – | – | 0.16 | – |
| O=c1c(CCN2CCc3oc4ccccc4c3C2)c(-c2ccccc2)nc2n1CCCC2 [Compound 10] | > 50 | > 50 | > 50 | 10.00 | – |
| O=c1[nH]c2ccccc2n1CCN1CCc2oc3ccccc3c2C1 [Compound 52] | > 50 | > 50 | > 50 | 10.00 | – |
| Cc1nc2n(C)c(C)cn2c(=O)c1CCN1CCc2oc3ccccc3c2C1 [Compound 30] | > 50 | – | – | 2.50 | – |

The next lines start with results.

| inhibition at up to 0.01 µM [1] [%] | inhibition [2] [%] | inhibition at up to 0.01 µM [3] [%] | Compound | LAD in mg/kg (lowest active dose for xylazine antagonism) (α2 -adrenoceptor; s.c.) [mg/kg] | LAD in mg/kg (lowest active dose for xylazine antagonism) (α2 -adrenoceptor; p.o.) [mg/kg] |
| --- | --- | --- | --- | --- | --- |
| > 50 | – | – | CSc1nc(C)c(CCN2CCc3oc4ccccc4c3C2)c(=O)n1C [Compound 56] | – | – |
| > 50 | > 50 | > 50 | Cc1nc2sc3ccccc3n2c(=O)c1CCN1CCc2oc3ccccc3c2C1 [Compound 62] | – | 10.00 |
| > 50 | > 50 | > 50 | Cc1nc2ccccn2c(=O)c1CCN1CCc2oc3ccccc3c2C1 [Compound 66] | 0.63 | – |
| > 50 | > 50 | > 50 | O=c1[nH]c2ccccc2c(=O)n1CCCCN1CCc2oc3ccccc3c2C1 [Compound 63] | – | – |
| > 50 | > 50 | > 50 | O=c1[nH]c2ccccc2n1CCCN1CCc2oc3ccccc3c2C1 [Compound 53] | – | – |

— US6156757A, “1,2,3,4-tetrahydro-benzofuro[3,2-C]pyridine derivatives” (Janssen Pharmaceutica N.V., priority 1997, dated 2000)
